Reference: patent publication US11028087B2, “2,6-disubstituted-9-cyclopentyl-9H-purines, use thereof as medicaments, and pharmaceutical compositions” (UNIVERZITA PALACKEHO V OLOMOUCI, priority 2017, dated 2021)
Like-named read-outs stand apart in the source and are kept apart here.

Experiments:
[1] = tested on: EOL-1 (eosinophilic leukaemia, carrying the fusion FIP1L1-PDGFRA); assay: Calcein AM cytotoxicity assay; format: cell-based; details: Homo sapiens, EOL1, 72 h; EOL-1; Calcein AM, three days; read-out: EC50 values (μM) EOL-1
From the text: (§1) Cytotoxicity of the compounds is the major property determining their anticancer effect in vivo. One of the parameters used, as the basis for cytotoxicity assays, is the integrity of cytoplasmic membrane of viable cells. For example, a microtiter assay, which uses acetomethoxy derivate of calcein (Calcein AM), is widely used for evaluation of cell proliferation and cytotoxicity. This assay is used in drug screening programs and in chemosensitivity testing. Intracellular esterases of viable cells convert calcein AM to green-fluorescent calcein of which signal corresponds to the number of viable cells in the culture.
(§2) We have been using the following cell lines: MV4-11 (acute myeloid leukemia, FLT3-ITD positive), MOLM-13 (acute myeloid leukemia, FLT3-ITD positive), THP-1 (acute myeloid leukemia, wt FLT3), U937 (monocytic leukemia, wt FLT3), EOL-1 (eosinophilic leukaemia, carrying the fusion FIP1L1-PDGFRA), H1703 (non-small cell lung carcinoma, PDGFRA amplification). […] K562 and MCF-7 cell lines were maintained in DMEM supplemented with 10% fetal bovine serum, penicilin (100 U/ml) and streptomycin (100 μg/ml). All cell lines were cultivated at 37° C. in 5% CO2. For cytotoxicity assays, cells were seeded in appropriate densities into 96 well plates and the next day tested compounds were added at various concentrations in triplicates. Three days after drug addition, Calcein AM solution (final concentration 1 μg/ml; Thermo Scientific, USA) was added into each well and incubated for 1 h.

K562 = assay: Calcein AM cytotoxicity assay; format: cell-based; details: Homo sapiens
From the text: as §1, §2

MCF-7 = assay: Calcein AM cytotoxicity assay; format: cell-based; details: Homo sapiens, MCF7, 72 h; MCF-7; Calcein AM, three days; read-out: EC50 values (μM) MCF-7
From the text: as §1, §2

[2] = tested on: MOLM-13 (acute myeloid leukemia, FLT3-ITD positive); assay: Calcein AM cytotoxicity assay; format: cell-based; details: Homo sapiens
From the text: as §1, §2

[3] = tested on: MV4-11 (acute myeloid leukemia, FLT3-ITD positive); assay: Calcein AM cytotoxicity assay; format: cell-based; details: Homo sapiens
From the text: as §1, §2

[4] = tested on: THP-1 (acute myeloid leukemia, wt FLT3); assay: Calcein AM cytotoxicity assay; format: cell-based; details: Homo sapiens, 72 h; THP-1; Calcein AM, three days; read-out: EC50 values (μM) THP-1
From the text: as §1, §2

[5] = tested on: U937 (monocytic leukemia, wt FLT3); assay: Calcein AM cytotoxicity assay; format: cell-based; details: Homo sapiens, U-937, 72 h; U937; Calcein AM, three days; read-out: EC50 values (μM) U937
From the text: as §1, §2

[6] = tested on: Kasumi-1 (acute myeloid leukemia, KIT mutation Asn822Lys); assay: Calcein AM cytotoxicity assay; format: cell-based; details: Homo sapiens
From the text: as §1
We have been using the following cell lines: MV4-11 (acute myeloid leukemia, FLT3-ITD positive), MOLM-13 (acute myeloid leukemia, FLT3-ITD positive), THP-1 (acute myeloid leukemia, wt FLT3), U937 (monocytic leukemia, wt FLT3), EOL-1 (eosinophilic leukaemia, carrying the fusion FIP1L1-PDGFRA), H1703 (non-small cell lung carcinoma, PDGFRA amplification). They were maintained in RPMI-1640 supplemented with 10% fetal bovine serum, penicillin (100 U/ml) and streptomycin (100 μg/ml). Kasumi-1 (acute myeloid leukemia, KIT mutation Asn822Lys) cells were cultivated in RPMI-1640 supplemented with 15% fetal bovine serum, penicillin (100 U/ml) and streptomycin (100 μg/ml). K562 and MCF-7 cell lines were maintained in DMEM supplemented with 10% fetal bovine serum, penicilin (100 U/ml) and streptomycin (100 μg/ml). All cell lines were cultivated at 37° C. in 5% CO2. For cytotoxicity assays, cells were seeded in appropriate densities into 96 well plates and the next day tested compounds were added at various concentrations in triplicates. Three days after drug addition, Calcein AM solution (final concentration 1 μg/ml; Thermo Scientific, USA) was added into each well and incubated for 1 h. After this incubation period, fluorescence of the live cells was measured at 485 nm/538 nm (ex/em) with a Fluoroskan Ascent microplate reader (Labsystems).

CDK1/Cyclin B = target: T1, CDK1/Cyclin B (Homo sapiens, UniProt P06493); assay: Kinase inhibition assay with [γ-33P]ATP; format: biochemical; details: histone H1, 15 μM ATP
T1 construct: made in house; host or cells: Sf9 insect cells, baculoviral infection
T1 sequence (P06493 whole entry, species assumed): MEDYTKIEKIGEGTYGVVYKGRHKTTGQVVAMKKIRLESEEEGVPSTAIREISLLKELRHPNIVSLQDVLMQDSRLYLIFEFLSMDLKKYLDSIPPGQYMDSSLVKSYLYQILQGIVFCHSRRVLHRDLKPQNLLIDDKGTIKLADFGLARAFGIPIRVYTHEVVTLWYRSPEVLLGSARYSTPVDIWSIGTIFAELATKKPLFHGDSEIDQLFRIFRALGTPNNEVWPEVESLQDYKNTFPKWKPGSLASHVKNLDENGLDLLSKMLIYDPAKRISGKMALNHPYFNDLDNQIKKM
T1 sequence (P14635 whole entry partner, species assumed): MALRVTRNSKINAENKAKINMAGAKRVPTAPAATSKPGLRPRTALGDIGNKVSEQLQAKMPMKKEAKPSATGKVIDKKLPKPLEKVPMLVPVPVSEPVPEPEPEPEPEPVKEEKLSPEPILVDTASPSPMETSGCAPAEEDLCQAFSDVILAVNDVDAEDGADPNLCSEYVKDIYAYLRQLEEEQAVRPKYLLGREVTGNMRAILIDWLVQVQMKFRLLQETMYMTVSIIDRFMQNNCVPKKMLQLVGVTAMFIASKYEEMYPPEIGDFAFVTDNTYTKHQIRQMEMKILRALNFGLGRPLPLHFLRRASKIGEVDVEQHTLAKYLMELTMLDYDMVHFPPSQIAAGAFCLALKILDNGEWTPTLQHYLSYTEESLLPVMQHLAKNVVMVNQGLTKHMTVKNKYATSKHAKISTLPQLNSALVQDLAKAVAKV
Method: (§3) CDK1/Cyclin B and CDK2/Cyclin E kinases were produced in Sf9 insect cells via baculoviral infection and purified on a NiNTA column (Qiagen). CDK5/p35 and CDK7Cyclin H/MAT1, FLT3 WT, FLT3-ITD and FLT3 D835 were purchased from ProQinase GmbH. The kinase reactions were assayed with 1 mg/mL histone H1 (for CDK1, CDK2 and CDK5), (YSPTSPS)2KK peptide (for CDK7) or AGLT substrate (for FLT3) in the presence of 15/15/0.15/1.5/1 μM ATP (for CDK1/CDK2/CDK5/CDK7/FLT3), 0.05 μCi [γ-^33P]ATP and of the test compound in a final volume of 10 μL, all in a reaction buffer (60 mM HEPES-NaOH, pH 7.5, 3 mM MgCl2, 3 mM MnCl2, 3 μM Na-orthovanadate, 1.2 mM DTT, 2.5 μg/50 μl PEG20,000). The reactions were stopped by adding 5 μL of 3% aq H3PO4. Aliquots were spotted onto P-81 phosphocellulose (Whatman), washed 3× with 0.5% aq H3PO4 and finally air-dried.

CDK2/Cyclin E = target: T2, CDK2/Cyclin E (Homo sapiens, UniProt P24941); assay: Kinase inhibition assay with [γ-33P]ATP; format: biochemical
T2 construct: made in house; host or cells: Sf9 insect cells, baculoviral infection
Method: as §3

CDK5/p35 = target: T3, CDK5/p35 (Homo sapiens, UniProt Q00535); assay: Kinase inhibition assay with [γ-33P]ATP; format: biochemical; details: histone H1, 0.15 μM ATP
T3 construct: purchased ProQinase GmbH
T3 sequence (Q00535 whole entry): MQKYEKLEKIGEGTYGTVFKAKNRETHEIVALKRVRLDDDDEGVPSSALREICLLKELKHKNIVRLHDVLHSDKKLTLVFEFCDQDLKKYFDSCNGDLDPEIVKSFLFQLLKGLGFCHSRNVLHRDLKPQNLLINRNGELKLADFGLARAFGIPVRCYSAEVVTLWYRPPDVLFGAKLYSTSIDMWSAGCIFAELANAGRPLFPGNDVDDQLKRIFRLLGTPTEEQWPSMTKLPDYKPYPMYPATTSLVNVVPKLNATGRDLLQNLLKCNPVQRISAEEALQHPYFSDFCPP
T3 sequence (Q15078 whole entry partner): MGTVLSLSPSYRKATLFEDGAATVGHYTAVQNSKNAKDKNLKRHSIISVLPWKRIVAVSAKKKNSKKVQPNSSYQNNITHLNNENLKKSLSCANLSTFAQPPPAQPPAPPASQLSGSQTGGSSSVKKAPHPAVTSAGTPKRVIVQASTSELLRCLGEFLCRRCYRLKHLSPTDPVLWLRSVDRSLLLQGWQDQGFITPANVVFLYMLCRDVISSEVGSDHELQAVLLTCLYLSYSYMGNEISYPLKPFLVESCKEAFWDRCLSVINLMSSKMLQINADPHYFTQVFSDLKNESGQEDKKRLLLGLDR
Method: as §3

FLT3 WT = target: T4, FLT3 WT (Homo sapiens, UniProt P36888); assay: Kinase inhibition assay with [γ-33P]ATP; format: biochemical; details: AGLT substrate, 1 μM ATP
T4 construct: purchased ProQinase GmbH
T4 sequence (P36888 27-993): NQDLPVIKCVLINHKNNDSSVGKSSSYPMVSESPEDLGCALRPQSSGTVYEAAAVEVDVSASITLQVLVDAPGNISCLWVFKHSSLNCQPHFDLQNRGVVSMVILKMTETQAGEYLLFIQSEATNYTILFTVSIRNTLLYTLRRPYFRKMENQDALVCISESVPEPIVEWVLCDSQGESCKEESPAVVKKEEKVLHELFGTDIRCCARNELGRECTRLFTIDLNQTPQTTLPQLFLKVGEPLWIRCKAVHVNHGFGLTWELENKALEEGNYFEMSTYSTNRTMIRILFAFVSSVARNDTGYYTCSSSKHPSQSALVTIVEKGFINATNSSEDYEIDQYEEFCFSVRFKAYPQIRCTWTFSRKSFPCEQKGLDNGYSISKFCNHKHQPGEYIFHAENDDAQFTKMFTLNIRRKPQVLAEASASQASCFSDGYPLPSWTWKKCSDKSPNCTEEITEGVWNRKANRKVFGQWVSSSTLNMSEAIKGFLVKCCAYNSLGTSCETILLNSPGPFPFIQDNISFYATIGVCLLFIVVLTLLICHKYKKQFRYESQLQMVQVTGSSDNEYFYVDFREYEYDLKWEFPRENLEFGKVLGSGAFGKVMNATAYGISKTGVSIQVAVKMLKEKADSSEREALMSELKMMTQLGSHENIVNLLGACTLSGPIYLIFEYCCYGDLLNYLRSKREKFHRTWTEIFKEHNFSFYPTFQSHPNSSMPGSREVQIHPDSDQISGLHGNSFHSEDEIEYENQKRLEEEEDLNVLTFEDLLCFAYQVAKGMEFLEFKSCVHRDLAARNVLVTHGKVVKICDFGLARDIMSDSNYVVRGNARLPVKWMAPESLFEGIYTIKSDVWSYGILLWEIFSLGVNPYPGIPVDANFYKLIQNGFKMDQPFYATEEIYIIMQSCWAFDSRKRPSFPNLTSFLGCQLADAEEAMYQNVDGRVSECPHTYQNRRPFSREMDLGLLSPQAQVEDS
Method: as §3

FLT3-ITD = target: T5, FLT3-ITD (Homo sapiens, UniProt P36888); assay: Kinase inhibition assay with [γ-33P]ATP; format: biochemical; details: comparative example; read-out: Influence of compounds on protein kinase inhibition, IC50 values (μM) FLT3 ITD
T5 sequence (P36888 1-993): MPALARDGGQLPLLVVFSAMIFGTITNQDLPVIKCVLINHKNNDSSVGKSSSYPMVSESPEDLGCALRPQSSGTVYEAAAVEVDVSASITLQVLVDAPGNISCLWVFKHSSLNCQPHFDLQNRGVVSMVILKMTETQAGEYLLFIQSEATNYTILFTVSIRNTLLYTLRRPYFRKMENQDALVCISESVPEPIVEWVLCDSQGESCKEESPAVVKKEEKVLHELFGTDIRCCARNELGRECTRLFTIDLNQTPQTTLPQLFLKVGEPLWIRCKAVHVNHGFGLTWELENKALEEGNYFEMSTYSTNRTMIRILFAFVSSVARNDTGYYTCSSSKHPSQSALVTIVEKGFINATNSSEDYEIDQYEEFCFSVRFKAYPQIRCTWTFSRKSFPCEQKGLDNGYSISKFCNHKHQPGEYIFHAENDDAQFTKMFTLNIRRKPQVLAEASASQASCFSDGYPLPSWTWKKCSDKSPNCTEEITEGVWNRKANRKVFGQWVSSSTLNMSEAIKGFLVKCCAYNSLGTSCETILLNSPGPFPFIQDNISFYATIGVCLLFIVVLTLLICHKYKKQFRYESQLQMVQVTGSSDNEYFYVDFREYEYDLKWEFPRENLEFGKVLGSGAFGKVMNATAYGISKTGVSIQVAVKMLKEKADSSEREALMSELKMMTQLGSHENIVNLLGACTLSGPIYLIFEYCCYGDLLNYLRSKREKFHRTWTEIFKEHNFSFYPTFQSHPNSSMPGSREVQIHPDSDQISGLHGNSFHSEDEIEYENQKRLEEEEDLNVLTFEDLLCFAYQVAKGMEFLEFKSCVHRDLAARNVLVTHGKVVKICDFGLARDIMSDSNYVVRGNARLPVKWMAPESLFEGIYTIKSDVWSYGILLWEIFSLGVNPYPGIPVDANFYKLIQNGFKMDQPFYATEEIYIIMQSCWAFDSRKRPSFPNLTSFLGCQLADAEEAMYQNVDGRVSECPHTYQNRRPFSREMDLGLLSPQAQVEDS
Method: as §3

Row | IC50 (CDK1/Cyclin B) | IC50 (CDK2/Cyclin E; histone H1, 15 μM ATP, read-out: IC50 values (μM) CDK2) | IC50 (CDK5/p35) | IC50 (FLT3 WT) | IC50 (CDK2/Cyclin E; comparative example, read-out: Influence of compounds on protein kinase inhibition, IC50 values (μM) CDK2) | IC50 (FLT3-ITD) | Structure (SMILES) | EC50 [1] | EC50 (K562; 72 h, K562, Calcein AM, three days, read-out: EC50 values (μM) K562) | EC50 (MCF-7) | EC50 ([2]; 72 h, MOLM-13, Calcein AM, three days, read-out: EC50 values (μM) MOLM-13) | EC50 ([3]; 72 h, MV4-11, Calcein AM, three days after drug addition, read-out: EC50 values (μM) MV4-11) | EC50 [4] | EC50 [5] | EC50 ([6]; 72 h, Kasumi-1, Calcein AM, three days, read-out: EC50 values (μM) Kasumi-1) | EC50 (K562; comparative example, K562, 72 h, read-out: Influence of compounds on proliferation (72 h), EC50 values (μM) K562) | EC50 ([2]; comparative example, MOLM-13, 72 h, read-out: Influence of compounds on proliferation (72 h), EC50 values (μM) MOLM-13) | EC50 ([3]; comparative example, MV4-11, 72 h, read-out: Influence of compounds on proliferation (72 h), EC50 values (μM) MV4-11) | EC50 ([6]; comparative example, Kasumi-1, 72 h, read-out: Influence of compounds on proliferation (72 h), EC50 values (μM) Kasumi-1)
1 | 6.05 µM | 2.04 µM | 3.71 µM | 0.025 µM | – | – | NCCCCCNc1nc(Nc2ccc(CN3CCOCC3)cc2)c2ncn(C3CCCC3)c2n1 [Compound 267] | 0.071 µM | 1.79 µM | 2.27 µM | 0.02 µM | 0.032 µM | 2.42 µM | 3.63 µM | 1.25 µM | – | – | – | –
2 | – | – | – | – | > 5 µM | 0.759 µM | NC1CCC(Nc2nc(Nc3ccc(CN4CCOCC4)cc3)c3ncn(-c4ccccc4)c3n2)CC1 (stereo not drawn) [Phenyl derivative of compound 264, reference compound] | – | – | – | – | – | – | – | – | 1.81 µM | 0.912 µM | 0.648 µM | 0.722 µM
